Where two headings read alike, the source gives them in different places.
System: 80S14 (p21-deficient) cells
Assay: Cytotoxicity assay using isogenic cell lines: IC50 in 80S14 (p21-deficient) cells, SRB
Assay type: cell-based, human
Experimental: Cytotoxicity Assay Using Isogenic Cell Lines: • 1. 80S14 (p21-deficient) cells were cultured in RPMI 1640 medium (Gibco/Invitrogen Life technologies) supplemented with 10% fetal bovine serum (FBS, Gibco) and 10 μg/ml gentamycin (Gibco). Cells were maintained at 37° C. under 7% CO2 • 2. Cells were plated at 6×10^4/ml (0.2 ml/well; 12,000 cells/well) in 96-well microtiter plates (Falcon or Corning/Costar) and incubated at 37° C. overnight (18-24 hours). • 3. 2-5 μl of the test agent [200 μg/ml stock in 20% DMSO/20 mM HEPES, pH 7.5 (Gibco)] was added to each well to achieve a final concentration of 2-5 μg/ml. Cells were incubated with the test compounds for 5 days at 37° C. • 4. Surviving cells were fixed with 50 μl 50% trichloroacetic acid (Sigma; 10% final concentration) for 1 hour at 4° C. • 5. Plates were rinsed twice with water (0.3 ml per wash using MRD8 robot), and allowed to dry. • 6. Sulforhodamine B (SRB) (Sigma; 0.4% in 1% acetic acid, 50 μl per well; MRD8 robot) was added and plates kept at room temperature for 10 minutes. • 7. Excess dye was removed by washing with 1% acetic acid (3 times, 0.3 ml per wash; MRD8 robot) and allowed to dry. • 8. The dye was solubilized in Tris base (Sigma; 10 mM, 150 μl per well). Plates were kept at room temperature for 30 minutes to allow the dye to diffuse. • 9. Absorbance was measured at 540 nm. • 10. The percentage of cells surviving drug treatment relative to control wells (no drug) was determined. • 11. The difference in % cell survival between the two cell lines was calculated. • 12. Compounds producing a difference score of >50 were considered to be selective for the p21-deficient cells and were evaluated further: Determination of selectivity of compounds for p21−/− cells: • 1. 80S14 cells were cultured as described above. • 2. Cells were seeded in 96-well microtiter plates at 12,000 cells/well (either 0.15 ml/well of 8×10^4 cells/ml suspension, or 0.2 ml/well of 6×10^4 cells/ml suspension). Plates were incubated at 37° C. overnight (18-24 hours). • 3. Serial dilutions of the test agent were added to each well. Dilutions were prepared either in 40% DMSO/20% methanol/20 mM HEPES, pH 7.5 (Gibco) or directly in growth medium. One of two dose ranges were used: 5 pM to 50 μM or 170 pg/ml to 10 μg/ml. Cells were incubated with the test compounds for 5 days at 37° C. • 4. Surviving cells were fixed with 50 μl 50% trichloroacetic acid (Sigma; 10% final concentration) for 1 hour at 4° C. • 5. Plates were rinsed extensively in water, and allowed to dry. • 6. Sulforhodamine B (Sigma; 0.4% in 1% acetic acid, 70 μl per well) was added and plates kept at room temperature for 10 minutes. • 7. Excess dye was removed by washing 5 times with 1% acetic acid and plates were allowed to dry. • 8. The dye was solubilized in Tris base (Sigma; 10 mM, 150 μl per well). Plates were placed on a titer plate shaker (Lab Line Instruments) for 5 minutes to allow the dye to diffuse. • 9. Absorbance was measured at 560 nm.
10. The drug concentration that inhibits cell proliferation by 50% relative to untreated controls (IC50) was determined from cytotoxicity curves.

[1] = Homo sapiens, 120 h, 80S14 p21-deficient cells, 5 days incubation, SRB, read-out: IC50 for 80SI4
[2] = Homo sapiens, 80S14, 120 h, read-out: IC50 for 80SI4 (uM)
[3] = 80S14 p21-deficient cells, 5 days incubation, SRB, read-out: IC50 for 80SI4

Row | Compound | IC50 [1] | further results
1 | Cn1cnc(S(=O)(=O)Nc2cccc(-c3ccnc4c(C(=O)c5cccs5)cnn34)c2)c1 [Example 39, 1-methyl-N-{3-[3-(thien-2-ylcarbonyl)pyrazolo[1,5-a]pyrimidin-7-yl]phenyl}-1H-imidazole-4-sulfonamide] | 10 to 50 µM | 
2 | CN(C)S(=O)(=O)Nc1cccc(-c2ccnc3c(C(=O)c4cccs4)cnn23)c1 [Example 40, N,N-dimethyl-N′-{3-[3-(thien-2-ylcarbonyl)pyrazolo[1,5-a]pyrimidin-7-yl]phenyl}sulfamide] | 1 to 10 µM | 
3 | CCOC(=O)C(=O)Nc1cccc(-c2ccnc3c(C(=O)c4cccs4)cnn23)c1 [Example 41, ethyl oxo({3-[3-(thien-2-ylcarbonyl)pyrazolo[1,5-a]pyrimidin-7-yl]phenyl}amino)acetate] | 10 to 50 µM | 
4 | COC(=O)CCC(=O)Nc1cccc(-c2ccnc3c(C(=O)c4cccs4)cnn23)c1 [Example 42, methyl 4-oxo-4-({3-[3-(thien-2-ylcarbonyl)pyrazolo[1,5-a]pyrimidin-7-yl]phenyl}amino)butanoate] | 10 to 50 µM | 
5 | C=C(C)C(=O)Nc1cccc(-c2ccnc3c(C(=O)c4cccs4)cnn23)c1 [Example 43, 2-methyl-N-{3-[3-(thien-2-ylcarbonyl)pyrazolo[1,5-a]pyrimidin-7-yl]phenyl}acrylamide] | < 1 µM | 
6 | CC(C)=CC(=O)Nc1cccc(-c2ccnc3c(C(=O)c4cccs4)cnn23)c1 [Example 45, 3-methyl-N-{3-[3-(thien-2-ylcarbonyl)pyrazolo[1,5-a]pyrimidin-7-yl]phenyl}but-2-enamide] | < 1 µM | 
7 | CC(C)CC(=O)Nc1cccc(-c2ccnc3c(C(=O)c4cccs4)cnn23)c1 [Example 47, 3-methyl-N-{3-[3-(thien-2-ylcarbonyl)pyrazolo[1,5-a]pyrimidin-7-yl]phenyl}butanamide] |  | IC50 [2]: < 1 µM
8 | CC(C)(C)C(=O)Nc1cccc(-c2ccnc3c(C(=O)c4cccs4)cnn23)c1 [Example 48, 2,2-dimethyl-N-{3-[3-(thien-2-ylcarbonyl)pyrazolo[1,5-a]pyrimidin-7-yl]phenyl}propanamide] |  | IC50 [2]: < 1 µM
9 | O=C(c1cccs1)c1cnn2c(-c3cccc(NC(=O)C(Cl)(Cl)Cl)c3)ccnc12 [Example 49, 2,2,2-trichloro-N-{3-[3-(thien-2-ylcarbonyl)pyrazolo[1,5-a]pyrimidin-7-yl]phenyl}acetamide] | 1 to 10 µM | 
10 | CSCCC(=O)Nc1cccc(-c2ccnc3c(C(=O)c4cccs4)cnn23)c1 [Example 50, 3-(methylthio)-N-{3-[3-(thien-2-ylcarbonyl)pyrazolo[1,5-a]pyrimidin-7-yl]phenyl}propanamide] | < 1 µM | 
11 | O=C(c1cccs1)c1cnn2c(-c3cccc(NC(=O)[C@@H]4CCCN4C(=O)C(F)(F)F)c3)ccnc12 [Example 52] |  | IC50 [3]: 1 to 10 µM
12 | O=C(c1cccs1)c1cnn2c(-c3cccc(NC(=O)C45CC6CC(CC(C6)C4)C5)c3)ccnc12 [Example 53, N-{3-[3-(thien-2-ylcarbonyl)pyrazolo[1,5-a]pyrimidin-7-Yl]phenyl}adamantine-1-carboxamide] |  | IC50 [3]: < 1 µM
13 | C=CCCC(=O)Nc1cccc(-c2ccnc3c(C(=O)c4cccs4)cnn23)c1 [Example 57, N-{3-[3-(thien-2-ylcarbonyl)pyrazolo[1,5-a]pyrimidin-7-yl]phenyl}pent-4-enamide] | < 1 µM | 
14 | CC(CC(=O)Nc1cccc(-c2ccnc3c(C(=O)c4cccs4)cnn23)c1)C(F)(F)F (centres unmarked) [Example 59, 4,4,4-trifluoro-3-methyl-N-{3-[3-(thien-2-ylcarbonyl)pyrazolo[1,5-a]pyrimidin-7-yl]phenyl}butanamide] | < 1 µM | 
15 | N#CCC(=O)Nc1cccc(-c2ccnc3c(C(=O)c4cccs4)cnn23)c1 [Example 60, 2-cyano-N-{3-[3-(thien-2-ylcarbonyl)pyrazolo[1,5-a]pyrimidin-7-yl]phenyl]acetamide] | < 1 µM | 
16 | COCC(=O)Nc1cccc(-c2ccnc3c(C(=O)c4cccs4)cnn23)c1 [Example 61, 2-methoxy-N-{3-[3-(thien-2-ylcarbonyl)pyrazolo[1,5-a]pyrimidin-7-yl]phenyl]acetamide] | 1 to 10 µM | 
17 | CC(=O)OCC(=O)Nc1cccc(-c2ccnc3c(C(=O)c4cccs4)cnn23)c1 [Example 62, 2-oxo-2-({3-[3-(thien-2-ylcarbonyl)pyrazolo[1.5-a]pyrimidin-7-yl]phenyl]amino)ethyl acetate] |  | IC50 [3]: 1 to 10 µM
18 | COCCOCC(=O)Nc1cccc(-c2ccnc3c(C(=O)c4cccs4)cnn23)c1 [Example 63, 2-(2-methoxyethoxy)-N-{3-[3-(thien-2-ylcarbonyl)pyrazolo[1,5-a]pyrimidin-7-yl]phenyl}acetamide] | 1 to 10 µM | 
19 | CN(C)CC(=O)Nc1cccc(-c2ccnc3c(C(=O)c4cccs4)cnn23)c1 [Example 64, N-2-N-2-dimethyl-N-1-{3-[3-(thien-2-ylcarbonyl)pyrazolo[1,5-a]pyrimidin-7-yl]phenyl}glycinamide] |  | IC50 [3]: 1 to 10 µM
20 | CCN(CC)CCC(=O)Nc1cccc(-c2ccnc3c(C(=O)c4cccs4)cnn23)c1 [Example 65, N-3,N-3-diethyl-N-1-{3-[3-(thien-2-ylcarbonyl)pyrazolo[1,5-a]pyrimidin-7-yl]phenyl}-beta-alaninamide] |  | IC50 [3]: 10 to 50 µM
21 | O=C(Cc1cccs1)Nc1cccc(-c2ccnc3c(C(=O)c4cccs4)cnn23)c1 [Example 66] |  | IC50 [3]: < 1 µM
22 | O=C(CC1Cc2ccccc2C1)Nc1cccc(-c2ccnc3c(C(=O)c4cccs4)cnn23)c1 [Example 67, 2-(2,3-dihydro-1H-inden-2-yl)-N-{3-[3-(thien-2-ylcarbonyl)pyrazolo[1,5-a]pyrimidin-7-yl]phenyl}acetamide] | < 1 µM | 
23 | Cc1ccccc1CC(=O)Nc1cccc(-c2ccnc3c(C(=O)c4cccs4)cnn23)c1 [Example 68, 2-(2-methylphenyl)-N-{3-[3-(thien-2-ylcarbonyl)pyrazolo[1,5-a]pyrimidin-7-yl]phenyl}acetamide] | < 1 µM | 
24 | O=C(Cc1ccc2c(c1)OCO2)Nc1cccc(-c2ccnc3c(C(=O)c4cccs4)cnn23)c1 [Example 69, 2-(1,3-benzodioxol-5-yl)-N-{3-[3-(thien-2-ylcarbonyl)pyrazolo[1,5-a]pyrimidin-7-yl]phenyl}acetamide] | < 1 µM | 
25 | O=C(Nc1cccc(-c2ccnc3c(C(=O)c4cccs4)cnn23)c1)c1cnc2ccccc2c1 [Example 70, N-{3-[3-(thien-2-ylcarbonyl)pyrazolo[1,5-a]pyrimidin-7-yl]phenyl}quinoline-3-carboxamide] | 1 to 10 µM | 
26 | O=C(/C=C/c1ccccc1)Nc1cccc(-c2ccnc3c(C(=O)c4cccs4)cnn23)c1 [Example 71, (2E)-3-phenyl-N-{3-[3-(thien-2-ylcarbonyl)pyrazolo[1,5-a]pyrimidin-7-yl]phenyl}prop-2-enamide] | 1 to 10 µM | 
27 | O=C(CC1CCCC1)Nc1cccc(-c2ccnc3c(C(=O)c4cccs4)cnn23)c1 [Example 73, 2-cyclopentyl-N-{3-[3-(thien-2-ylcarbonyl)pyrazolo[1,5-a]pyrimidin-7-yl]phenyl}acetamide] | < 1 µM | 
28 | NCC(=O)Nc1cccc(-c2ccnc3c(C(=O)c4cccs4)cnn23)c1 [Example 77, N-1-{3-[3-(thien-2-ylcarbonyl)pyrazolo[1,5-a]pyrimidin-7-yl]phenyl}gylcinamide] |  | IC50 [3]: 10 to 50 µM
29 | C[C@H](N)C(=O)Nc1cccc(-c2ccnc3c(C(=O)c4cccs4)cnn23)c1 [Example 78, N-1-{3-[3-(thien-2-ylcarbonyl)pyrazolo[1,5-a]pyrimidin-7-yl]phenyl}-L-alaninamide] |  | IC50 [3]: 1 to 10 µM

Source: patent publication US20060063784A1, “Method of using substituted pyrazolo [1,5-a] pyrimidines” (priority 2004, published 2006)
